Tested on: 857933-349-R-J2-PDC complex spheroids, viability
Assay: Anticancer human tumor 857933-349-R-J2-PDC patient-derived colon adenocarcinoma cell line growth inhibition [GQUAD]
Details: for IC50: curve of first compound; for viability, T/C: stronger effect = lower value
How it was run: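 Viability of tumor cells grown as complex spheroids with endothelial and stromal cells, exposed to drug combinations. Top concentration at or near clinical Cmax (else 10 microM), diluted in half-log increments.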

[1] = second compound 0.0316 µM, first compound 0.0316 µM
[2] = second compound 0.0316 µM, first compound 0.1 µM
[3] = second compound 0.0316 µM, first compound 0.316 µM
[4] = second compound 0.0316 µM, first compound 1 µM
[5] = second compound 0.0316 µM, first compound 3.16 µM
[6] = second compound 0.0316 µM, first compound 10 µM
[7] = second compound 0.1 µM, first compound 0.0316 µM
[8] = second compound 0.1 µM, first compound 0.1 µM
[9] = second compound 0.1 µM, first compound 0.316 µM
[10] = second compound 0.1 µM, first compound 1 µM
[11] = second compound 0.1 µM, first compound 3.16 µM
[12] = second compound 0.1 µM, first compound 10 µM
[13] = second compound 0.316 µM, first compound 0.0316 µM
[14] = second compound 0.316 µM, first compound 0.1 µM
[15] = second compound 0.316 µM, first compound 0.316 µM
[16] = second compound 0.316 µM, first compound 1 µM
[17] = second compound 0.316 µM, first compound 3.16 µM
[18] = second compound 0.316 µM, first compound 10 µM
[19] = second compound 1 µM, first compound 0.0316 µM
[20] = second compound 1 µM, first compound 0.1 µM
[21] = second compound 1 µM, first compound 0.316 µM
[22] = second compound 1 µM, first compound 1 µM
[23] = second compound 1 µM, first compound 3.16 µM
[24] = second compound 1 µM, first compound 10 µM
[25] = second compound 3.16 µM, first compound 0.0316 µM
[26] = second compound 3.16 µM, first compound 0.1 µM
[27] = second compound 3.16 µM, first compound 0.316 µM
[28] = second compound 3.16 µM, first compound 1 µM
[29] = second compound 3.16 µM, first compound 3.16 µM
[30] = second compound 3.16 µM, first compound 10 µM
[31] = second compound 10 µM, first compound 0.0316 µM
[32] = second compound 10 µM, first compound 0.1 µM
[33] = second compound 10 µM, first compound 0.316 µM
[34] = second compound 10 µM, first compound 1 µM
[35] = second compound 10 µM, first compound 3.16 µM
[36] = second compound 10 µM, first compound 10 µM
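Also: spheroids exposed to compounds for one week before readout.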
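For viability, T/C in this document: percent viability relative to vehicle DMSO wells taken as 100%.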

For `CC1COCCN1c1cc(-c2ccnn2C)c2ccnc(-c3ccn[nH]3)c2n1` (centres undefined) + Cc1cnc(CNC(=O)c2c(=O)c3ccc(N4CCCN(C)CC4)nc3n3c2sc2ccccc23)cn1, the IC50 (second compound 0.0316 µM) was < 31.6 nM, the IC50 (second compound 0.1 µM) was < 31.6 nM and the IC50 (second compound 0.316 µM) was < 31.6 nM. The IC50 (second compound 1 µM) was < 31.6 nM, the IC50 (second compound 3.16 µM) was < 31.6 nM and the IC50 (second compound 10 µM) was < 31.6 nM. For the same molecule, the viability, T/C [1] was 49.6%, the viability, T/C [2] was 33.7% and the viability, T/C [3] was 33.5%. For the same molecule, the viability, T/C [4] was 31.8%, the viability, T/C [5] was 38.3% and the viability, T/C [6] was 41.4%. The viability, T/C [7] was 30.5%, the viability, T/C [8] was 25.8% and the viability, T/C [9] was 18.4%. The viability, T/C [10] was 23.6%, the viability, T/C [11] was 31% and the viability, T/C [12] was 32.4%. The viability, T/C [13] was 12.3%, the viability, T/C [14] was 6.9% and the viability, T/C [15] was 5.16%. The viability, T/C [16] was 5.25%, the viability, T/C [17] was 9.22% and the viability, T/C [18] was 16%. For the same molecule, the viability, T/C [19] was 2.71%, the viability, T/C [20] was 2.88% and the viability, T/C [21] was 2.86%. It also gave a viability, T/C [22] of 2.6%, a viability, T/C [23] of 4.59% and a viability, T/C [24] of 8.81%. The viability, T/C [25] was 2.08%, the viability, T/C [26] was 3.98% and the viability, T/C [27] was 2.01%. For the same molecule, the viability, T/C [28] was 1.59%, the viability, T/C [29] was 2.42% and the viability, T/C [30] was 5%. For the same molecule, the viability, T/C [31] was 1.03%, the viability, T/C [32] was 0.7% and the viability, T/C [33] was 0.73%. For the same molecule, the viability, T/C [34] was 0.54%, the viability, T/C [35] was 1.7% and the viability, T/C [36] was 2.18%.

With `CC1COCCN1c1cc(C2(O)CC3CCC(C2)O3)c2cnn(-c3ccn[nH]3)c2n1` (centres undefined) + Cc1cnc(CNC(=O)c2c(=O)c3ccc(N4CCCN(C)CC4)nc3n3c2sc2ccccc23)cn1 the IC50 (second compound 0.0316 µM) was < 31.6 nM, the IC50 (second compound 0.1 µM) was < 31.6 nM and the IC50 (second compound 0.316 µM) was < 31.6 nM. The IC50 (second compound 1 µM) was < 31.6 nM, the IC50 (second compound 3.16 µM) was < 31.6 nM and the IC50 (second compound 10 µM) was < 31.6 nM. It also gave a viability, T/C [1] of 49.9%, a viability, T/C [2] of 38.6% and a viability, T/C [3] of 36.8%. It also gave a viability, T/C [4] of 32.6%, a viability, T/C [5] of 35.3% and a viability, T/C [6] of 32%. It also gave a viability, T/C [7] of 33%, a viability, T/C [8] of 30.3% and a viability, T/C [9] of 21.1%. The viability, T/C [10] was 28%, the viability, T/C [11] was 31.8% and the viability, T/C [12] was 34%. It also gave a viability, T/C [13] of 8.32%, a viability, T/C [14] of 5.49% and a viability, T/C [15] of 5.41%. For the same molecule, the viability, T/C [16] was 4.77%, the viability, T/C [17] was 9.73% and the viability, T/C [18] was 13.8%. For the same molecule, the viability, T/C [19] was 2.88%, the viability, T/C [20] was 2.12% and the viability, T/C [21] was 2.17%. For the same molecule, the viability, T/C [22] was 2.14%, the viability, T/C [23] was 4.27% and the viability, T/C [24] was 1.54%. The viability, T/C [25] was 1.85%, the viability, T/C [26] was 1.84% and the viability, T/C [27] was 1.55%. The viability, T/C [28] was 1.35%, the viability, T/C [29] was 1.5% and the viability, T/C [30] was 0.57%. For the same molecule, the viability, T/C [31] was 0.52%, the viability, T/C [32] was 0.38% and the viability, T/C [33] was 0.33%. For the same molecule, the viability, T/C [34] was 0.38%, the viability, T/C [35] was 0.85% and the viability, T/C [36] was 0.32%.

— PubChem BioAssay AID2060491 (Molecular Pharmacology Branch, DTP, NCI, 2025)
